# Earlier results as cited in patent US7300792B2, “Lux expression in eukaryotic cells” (University of Tennessee Research Foundation, priority 2002, dated 2007).
# Tested on: lower eukaryotes
# Details: lower eukaryotes (yeast)
smiles,measurement,value
CCCCCCCCCC=O [n-decylaldehyde],Toxicity,toxic to lower eukaryotes
